*1 amine or outer side, *2 acyl side, *3 side chain or, on linkers, in order; H or OH if unused. Where a SMILES comes first, the peptide text is derived from it. Bridges are numbered along the chain shown (N, C = ends). [ ]: non-standard residue; d: D form. The star is where a group is joined. ξ: configuration not given here. hTyr(3S-OH,4S-OH,3'-OSO3H) = N[C@H](C(=O)O)[C@H](O)[C@@H](O)c1ccc(O)c(OS(=O)(=O)O)c1; Orn(4R-OH,5R-OH) = O=C([C@H](C[C@@H](O)[C@@H](O)N[*:3])N[*:1])[*:2]; Orn(4R-OH,5S-OH) = O=C([C@H](C[C@@H](O)[C@H](O)N[*:3])N[*:1])[*:2]; X4 = CCCCCCOc1ccc(-c2nnc(-c3ccc(C(=O)*)cc3)s2)cc1; X6 = CCCCCCCOc1ccc(N2CCN(c3ccc(C(=O)*)cn3)CC2)cc1; Pro(3S-OH,4S-Me) = C[C@H]1CN[C@H](C(=O)O)[C@H]1O; X1 = CCCCCCOc1ccc(N2CCN(c3ccc(C(=O)*)cc3)CC2)cc1; X2 = CCCCCOc1ccc(-c2cc(-c3ccc(C(=O)*)cc3)no2)cc1; X3 = CCCCOc1ccc(-c2ccc(-c3ccc(C(=O)*)cc3)cc2)cc1; X5 = CCCCCOc1ccc(-c2cc(-c3ccc(C(=O)*)cc3)on2)cc1; X7 = CCCCCCOc1ccc(C2CCN(c3ccc(C(=O)*)cc3)CC2)cc1; X8 = CCCCCOc1ccc(-c2nc(-c3ccc(C(=O)*)cc3)cs2)cc1; Benzoyl(4-octyloxy) = CCCCCCCCOc1ccc(C(=O)*)cc1; Gln(3R-OH) = NC(=O)C[C@@H](O)[C@H](N)C(=O)O; Hyp = O=C(O)[C@@H]1C[C@@H](O)CN1; ξThr(3R) = C[C@@H](O)C(N)C(=O)O
Columns and labels:
Candida albicans [1] = experiment: Antifungal activity against Candida albicans FP633 in RPMI media; format: functional
Candida albicans [2] = experiment: Antifungal activity against Candida albicans FP633 in mouse serum; format: functional
Aspergillus fumigatus [3] = experiment: Antifungal activity against Aspergillus fumigatus FP1305 in RPMI media; format: functional
Aspergillus fumigatus [4] = experiment: Antifungal activity against Aspergillus fumigatus FP1305 in mouse serum; format: functional
[5] = Hemolytic activity in human erythrocytes at 1 mg/ml; format: ADME, cell-based, Erythrocyte; conditions: read-out: Activity
Candida albicans [6] = experiment: Antifungal activity against Candida albicans FP633 infected in mouse; format: functional
[7] = Concentration in mouse plasma at 5 mg/kg, iv after 30 mins; format: ADME, organism-based; set-up: dose 5 mg/kg, route intravenous
[8] = Half life in mouse at 5 mg/kg, iv after 30 mins; format: ADME, organism-based; set-up: dose 5 mg/kg, route intravenous; conditions: in vivo
[9] = AUC (0 to infinity) in mouse at 5 mg/kg, iv after 30 mins; format: ADME, organism-based; set-up: time infinity, dose 5 mg/kg, route intravenous; conditions: plasma
Aspergillus fumigatus [10] = experiment: Antifungal activity against Aspergillus fumigatus FP1305 infected in mouse

SMILES	MIC (Candida albicans [1])	MIC (Candida albicans [2])	IC50 (Aspergillus fumigatus [3])	MIC (Aspergillus fumigatus [4])	hemolysis at 1 mg/ml [5]	ED50 (Candida albicans [6])	concentration at 0.5 h [7]	half-life [8]	AUC(0-inf) [9]	ED50 (Aspergillus fumigatus [10])
CCCCCCOc1ccc(N2CCN(c3ccc(C(=O)N[C@H]4C[C@@H](O)[C@@H](O)NC(=O)[C@@H]5[C@@H](O)[C@@H](C)CN5C(=O)[C@H]([C@H](O)CC(N)=O)NC(=O)[C@H]([C@H](O)[C@@H](O)c5ccc(O)c(OS(=O)(=O)[O-])c5)NC(=O)[C@@H]5C[C@@H](O)CN5C(=O)C([C@@H](C)O)NC4=O)cc3)CC2)cc1.[Na+] (stereo partly drawn) (X1-[Orn(4R-OH,5R-OH)][ξThr(3R)][Hyp][hTyr(3S-OH,4S-OH,3'-OSO3H)][Gln(3R-OH)][Pro(3S-OH,4S-Me)]; lactam 1-C)	0.1 µg/mL	3.13 µg/mL	2 ng/mL	1.56 µg/mL	< 20%	0.395 mg/kg	18800 ng/mL	210 min	105 µg·h/mL	0.531 mg/kg
CCCCCCCOc1ccc(N2CCN(c3ccc(C(=O)N[C@H]4C[C@@H](O)[C@@H](O)NC(=O)[C@@H]5[C@@H](O)[C@@H](C)CN5C(=O)[C@H]([C@H](O)CC(N)=O)NC(=O)[C@H]([C@H](O)[C@@H](O)c5ccc(O)c(OS(=O)(=O)[O-])c5)NC(=O)[C@@H]5C[C@@H](O)CN5C(=O)C([C@@H](C)O)NC4=O)cn3)CC2)cc1.[Na+] (stereo partly drawn) (X6-[Orn(4R-OH,5R-OH)][ξThr(3R)][Hyp][hTyr(3S-OH,4S-OH,3'-OSO3H)][Gln(3R-OH)][Pro(3S-OH,4S-Me)]; lactam 1-C)	0.2 µg/mL	3.13 µg/mL	5 ng/mL	6.25 µg/mL	< 20%					
CCCCOc1ccc(-c2ccc(-c3ccc(C(=O)N[C@H]4C[C@@H](O)[C@@H](O)NC(=O)[C@@H]5[C@@H](O)[C@@H](C)CN5C(=O)[C@H]([C@H](O)CC(N)=O)NC(=O)[C@H]([C@H](O)[C@@H](O)c5ccc(O)c(OS(=O)(=O)[O-])c5)NC(=O)[C@@H]5C[C@@H](O)CN5C(=O)[C@H]([C@@H](C)O)NC4=O)cc3)cc2)cc1.[Na+] (X3-[Orn(4R-OH,5R-OH)]T[Hyp][hTyr(3S-OH,4S-OH,3'-OSO3H)][Gln(3R-OH)][Pro(3S-OH,4S-Me)]; lactam 1-C)	0.025 µg/mL	1.56 µg/mL	2 ng/mL	1.56 µg/mL	79%	0.447 mg/kg				
CCCCCCCCOc1ccc(C(=O)N[C@H]2C[C@@H](O)[C@H](O)NC(=O)[C@@H]3[C@@H](O)[C@@H](C)CN3C(=O)[C@H]([C@H](O)CC(N)=O)NC(=O)[C@H]([C@H](O)[C@@H](O)c3ccc(O)c(OS(=O)(=O)[O-])c3)NC(=O)[C@@H]3C[C@@H](O)CN3C(=O)[C@H]([C@@H](C)O)NC2=O)cc1.[Na+] [FR-131535] ({Benzoyl(4-octyloxy)}-[Orn(4R-OH,5S-OH)]T[Hyp][hTyr(3S-OH,4S-OH,3'-OSO3H)][Gln(3R-OH)][Pro(3S-OH,4S-Me)]; lactam 1-C)		25 µg/mL		12.5 µg/mL			30300 ng/mL	120 min	109 µg·h/mL	
CCCCCOc1ccc(-c2cc(-c3ccc(C(=O)N[C@H]4C[C@@H](O)[C@@H](O)NC(=O)[C@@H]5[C@@H](O)[C@@H](C)CN5C(=O)[C@H]([C@H](O)CC(N)=O)NC(=O)[C@H]([C@H](O)[C@@H](O)c5ccc(O)c(OS(=O)(=O)[O-])c5)NC(=O)[C@@H]5C[C@@H](O)CN5C(=O)C([C@@H](C)O)NC4=O)cc3)on2)cc1.[Na+] (stereo partly drawn) (X5-[Orn(4R-OH,5R-OH)][ξThr(3R)][Hyp][hTyr(3S-OH,4S-OH,3'-OSO3H)][Gln(3R-OH)][Pro(3S-OH,4S-Me)]; lactam 1-C)	0.05 µg/mL	1.56 µg/mL	1 ng/mL	0.78 µg/mL	38%					
CCCCCCOc1ccc(C2CCN(c3ccc(C(=O)N[C@H]4C[C@@H](O)[C@@H](O)NC(=O)[C@@H]5[C@@H](O)[C@@H](C)CN5C(=O)[C@H]([C@H](O)CC(N)=O)NC(=O)[C@H]([C@H](O)[C@@H](O)c5ccc(O)c(OS(=O)(=O)[O-])c5)NC(=O)[C@@H]5C[C@@H](O)CN5C(=O)C([C@@H](C)O)NC4=O)cc3)CC2)cc1.[Na+] (stereo partly drawn) (X7-[Orn(4R-OH,5R-OH)][ξThr(3R)][Hyp][hTyr(3S-OH,4S-OH,3'-OSO3H)][Gln(3R-OH)][Pro(3S-OH,4S-Me)]; lactam 1-C)	0.05 µg/mL	1.56 µg/mL	3 ng/mL	1.56 µg/mL	33%					
CCCCCOc1ccc(-c2cc(-c3ccc(C(=O)N[C@H]4C[C@@H](O)[C@@H](O)NC(=O)[C@@H]5[C@@H](O)[C@@H](C)CN5C(=O)[C@H]([C@H](O)CC(N)=O)NC(=O)[C@H]([C@H](O)[C@@H](O)c5ccc(O)c(OS(=O)(=O)O)c5)NC(=O)[C@@H]5C[C@@H](O)CN5C(=O)[C@H]([C@@H](C)O)NC4=O)cc3)no2)cc1 (X2-[Orn(4R-OH,5R-OH)]T[Hyp][hTyr(3S-OH,4S-OH,3'-OSO3H)][Gln(3R-OH)][Pro(3S-OH,4S-Me)]; lactam 1-C)					< 20%					
CCCCCOc1ccc(-c2cc(-c3ccc(C(=O)N[C@H]4C[C@@H](O)[C@@H](O)NC(=O)[C@@H]5[C@@H](O)[C@@H](C)CN5C(=O)[C@H]([C@H](O)CC(N)=O)NC(=O)[C@H]([C@H](O)[C@@H](O)c5ccc(O)c(OS(=O)(=O)[O-])c5)NC(=O)[C@@H]5C[C@@H](O)CN5C(=O)C([C@@H](C)O)NC4=O)cc3)no2)cc1.[Na+] (stereo partly drawn) (X2-[Orn(4R-OH,5R-OH)][ξThr(3R)][Hyp][hTyr(3S-OH,4S-OH,3'-OSO3H)][Gln(3R-OH)][Pro(3S-OH,4S-Me)]; lactam 1-C)	0.05 µg/mL	1.56 µg/mL	2 ng/mL	1.56 µg/mL		0.325 mg/kg	10100 ng/mL	306 min	78 µg·h/mL	0.228 mg/kg
CCCCCCOc1ccc(-c2nnc(-c3ccc(C(=O)N[C@H]4C[C@@H](O)[C@@H](O)NC(=O)[C@@H]5[C@@H](O)[C@@H](C)CN5C(=O)[C@H]([C@H](O)CC(N)=O)NC(=O)[C@H]([C@H](O)[C@@H](O)c5ccc(O)c(OS(=O)(=O)[O-])c5)NC(=O)[C@@H]5C[C@@H](O)CN5C(=O)C([C@@H](C)O)NC4=O)cc3)s2)cc1.[Na+] (stereo partly drawn) (X4-[Orn(4R-OH,5R-OH)][ξThr(3R)][Hyp][hTyr(3S-OH,4S-OH,3'-OSO3H)][Gln(3R-OH)][Pro(3S-OH,4S-Me)]; lactam 1-C)	0.05 µg/mL	0.78 µg/mL	2 ng/mL	0.78 µg/mL	42%					
CCCCCOc1ccc(-c2nc(-c3ccc(C(=O)N[C@H]4C[C@@H](O)[C@@H](O)NC(=O)[C@@H]5[C@@H](O)[C@@H](C)CN5C(=O)[C@H]([C@H](O)CC(N)=O)NC(=O)[C@H]([C@H](O)[C@@H](O)c5ccc(O)c(OS(=O)(=O)[O-])c5)NC(=O)[C@@H]5C[C@@H](O)CN5C(=O)C([C@@H](C)O)NC4=O)cc3)cs2)cc1.[Na+] (stereo partly drawn) (X8-[Orn(4R-OH,5R-OH)][ξThr(3R)][Hyp][hTyr(3S-OH,4S-OH,3'-OSO3H)][Gln(3R-OH)][Pro(3S-OH,4S-Me)]; lactam 1-C)	0.1 µg/mL	6.25 µg/mL		3.13 µg/mL	< 20%					

Source: ChEMBL document CHEMBL1145626, “Novel echinocandin antifungals. Part 2: Optimization of the side chain of the natural product FR901379. Discovery of micafungin” (Bioorg Med Chem Lett, 2008)
